From US20120232062A1, “AZAINDAZOLES TO TREAT FLAVIVIRIDAE VIRUS INFECTION” (EIGER BIOPHARMACEUTICALS, INC., priority 2009, published 2012)

How the values were obtained:
Format in all cases: in vitro ADME
Conditions in all cases: human liver microsomes; >75 = low level of inhibition
CYP 2D6 = target: T1, CYP 2D6 (Homo sapiens, UniProt P10635); assay: CYP inhibition testing, CYP 2D6
T1 construct: For human liver microsome solution, a stock solution (20 mg/mL (4×final)) is used; from tissue; host or cells: human liver microsomes
T1 sequence (P10635 whole entry): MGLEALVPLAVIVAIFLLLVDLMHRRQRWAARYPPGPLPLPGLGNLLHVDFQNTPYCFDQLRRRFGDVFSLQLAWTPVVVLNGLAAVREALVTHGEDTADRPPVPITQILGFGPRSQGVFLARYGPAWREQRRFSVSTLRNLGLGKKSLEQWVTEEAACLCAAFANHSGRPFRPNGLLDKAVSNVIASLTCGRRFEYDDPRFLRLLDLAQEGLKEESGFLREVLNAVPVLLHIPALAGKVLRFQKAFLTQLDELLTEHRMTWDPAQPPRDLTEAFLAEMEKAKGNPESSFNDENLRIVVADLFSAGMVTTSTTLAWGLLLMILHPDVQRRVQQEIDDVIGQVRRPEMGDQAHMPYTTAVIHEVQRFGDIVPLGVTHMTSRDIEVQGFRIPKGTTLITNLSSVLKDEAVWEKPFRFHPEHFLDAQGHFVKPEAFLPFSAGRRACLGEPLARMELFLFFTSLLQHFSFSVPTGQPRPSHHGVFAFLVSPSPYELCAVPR
Procedure: (§1) Select compounds are tested for CYP inhibition against five different CYP enzymes: CYP 1A2, CYP 2C9, CYP 2C19, CYP 2D6, CYP 3A4. Individual CYP enzymes are incubated with corresponding substrates with no inhibitor (negative control). Individual CYP enzymes are then incubated with corresponding substrates in the presence of test compound. […] Values of 70>v, w, x, y, z>30 indicate moderate level of inhibition of the corresponding enzyme.
(§2) The following reagents are used: Sodium Phosphate, monobasic; Sodium Phosphate, dibasic; β-Nicotinamide Adenine Dinucleotide Phosphate-Reduced (NADPH), Roche; Milli-Q Water; 0.1 M Potassium phosphate buffer (K-buffer), pH 7.4. The following stock solutions are used. Stock A (136.5 g of monobasic potassium phosphate in 1 L of Milli-Q water (1.0 M)). Stock B (174.2 g of dibasic potassium phosphate in 1 L of Milli-Q water (1.0 M)). 40.5 mL of Stock B is mixed with 9.5 mL of Stock A, and the total volume brought near 500 mL with Milli-Q water to give 0.1 M potassium phosphate buffer. The buffer is titrated with KOH or H3PO4 to pH 7.4. To prepare a cofactor buffer (4×, 8 mM NADPH), 66.7 mg of NADPH tetrasodium salt is dissolved in 10 mL of K-buffer. For human liver microsome solution, a stock solution (20 mg/mL (4×final)) is used.
(§3) The following Positive control stock solutions are prepared: 0.3 mM α-Naphthoflavone (MW: 272.3, 0.0817 mg of α-Naphthoflavone in 1 mL DMSO), 10 mM Sulfaphenazole (MW: 314.4, 3.14 mg of sulfaphenazole in 1 mL DMSO) 100 mM Omeprazole (MW: 345.4, 34.54 mg of omeprazole in 1 mL DMSO), 2.5 mM Quinidine (MW: 324, 0.81 mg of quinidine in 1 mL DMSO), and 2.5 mM Ketoconazole (MW: 531.4, 1.33 mg of ketoconazole in 1 mL DMSO).
(§4) The following substrate stock solutions are prepared: 6 mM Phenacetin (MW: 179.22, 1.075 mg of phenacetin in 1 mL can), 10 mM Diclofenac (MW: 318.83, 3.18 mg of Diclofenac in 1 ml H2O), 35 mM S-Mephenyloin (MW: 218.25, 7.64 mg of s-mephenyloin in 1 mL ACN 10 mM Bufuralol (MW: 297.82, 2.98 mg of Bufuralol in 1 ml H2O), 1 mM Midazolam (MW: 325.77, 0.326 mg of midazolam in 1 mL can), and 10 mM Testosterone (MW: 288.42, 2.88 mg of Testosterone in 1 ml ACN.
(§5) Test compounds and reference compounds (positive control) are prepared in 0.2 mg/ml liver microsome solution. A 0.2 mg/ml liver microsome solution (2×final) is prepared from stock solution by adding 10 μL microsome stock solutions (20 mg/ml) in 990 μL K-buffer. 8 μL of 10 mM test compound stock solution (in DMSO or other solvent at various concentrations) is diluted with 12 μL ACN to make 4 mM solutions. 1:3 serial dilutions are performed using DMSO/ACN (40:60) from 4 mM solution further down seven concentration points (400×final): 4 mM, 1.33 mM, 0.44 mM, 0.148 mM, […], 0.0165 mM, 0.00549 mM, 0 mM. […]

CYP 3A4 = target: T2, CYP 3A4 (Homo sapiens, UniProt P08684); assay: CYP inhibition testing, CYP 3A4
T2 construct: For human liver microsome solution, a stock solution (20 mg/mL (4×final)) is used; from tissue; host or cells: human liver microsomes
T2 sequence (P08684 whole entry): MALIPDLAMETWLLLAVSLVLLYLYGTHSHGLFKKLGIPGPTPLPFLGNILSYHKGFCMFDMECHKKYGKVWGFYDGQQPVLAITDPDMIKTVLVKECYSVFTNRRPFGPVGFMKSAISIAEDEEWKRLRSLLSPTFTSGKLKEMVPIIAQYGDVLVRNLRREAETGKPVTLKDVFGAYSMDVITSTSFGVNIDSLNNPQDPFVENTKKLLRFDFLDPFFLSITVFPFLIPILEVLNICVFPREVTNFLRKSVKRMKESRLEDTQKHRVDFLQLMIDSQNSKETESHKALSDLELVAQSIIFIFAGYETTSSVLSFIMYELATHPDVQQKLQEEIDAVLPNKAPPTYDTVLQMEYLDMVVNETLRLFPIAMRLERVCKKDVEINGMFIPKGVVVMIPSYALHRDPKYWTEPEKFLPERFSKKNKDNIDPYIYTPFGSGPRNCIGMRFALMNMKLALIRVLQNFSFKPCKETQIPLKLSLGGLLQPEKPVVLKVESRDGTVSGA
Procedure: as §1, §2, §3, §4, §5

CYP 1A2 = target: T3, CYP 1A2 (Homo sapiens, UniProt P05177); assay: CYP inhibition testing, CYP 1A2
T3 construct: For human liver microsome solution, a stock solution (20 mg/mL (4×final)) is used; from tissue; host or cells: human liver microsomes
T3 sequence (P05177 1-516): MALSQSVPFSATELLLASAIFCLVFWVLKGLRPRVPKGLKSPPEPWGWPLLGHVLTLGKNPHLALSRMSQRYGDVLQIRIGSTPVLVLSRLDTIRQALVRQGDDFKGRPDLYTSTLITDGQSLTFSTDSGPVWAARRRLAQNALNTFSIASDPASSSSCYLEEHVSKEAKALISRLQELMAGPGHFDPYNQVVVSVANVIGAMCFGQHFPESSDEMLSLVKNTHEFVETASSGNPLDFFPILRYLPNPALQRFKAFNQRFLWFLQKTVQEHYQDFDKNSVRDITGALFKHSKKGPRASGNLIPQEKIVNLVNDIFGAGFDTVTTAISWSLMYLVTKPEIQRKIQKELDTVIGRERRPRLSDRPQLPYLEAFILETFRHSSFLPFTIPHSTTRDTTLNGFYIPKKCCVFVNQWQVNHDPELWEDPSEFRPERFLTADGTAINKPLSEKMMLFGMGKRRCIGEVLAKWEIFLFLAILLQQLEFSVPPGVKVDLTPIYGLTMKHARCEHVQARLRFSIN
Procedure: as §1, §2, §3, §4, §5

CYP 2C9 = target: T4, CYP 2C9 (Homo sapiens, UniProt P11712); assay: CYP inhibition testing, CYP 2C9
T4 construct: For human liver microsome solution, a stock solution (20 mg/mL (4×final)) is used; from tissue; host or cells: human liver microsomes
T4 sequence (P11712 whole entry): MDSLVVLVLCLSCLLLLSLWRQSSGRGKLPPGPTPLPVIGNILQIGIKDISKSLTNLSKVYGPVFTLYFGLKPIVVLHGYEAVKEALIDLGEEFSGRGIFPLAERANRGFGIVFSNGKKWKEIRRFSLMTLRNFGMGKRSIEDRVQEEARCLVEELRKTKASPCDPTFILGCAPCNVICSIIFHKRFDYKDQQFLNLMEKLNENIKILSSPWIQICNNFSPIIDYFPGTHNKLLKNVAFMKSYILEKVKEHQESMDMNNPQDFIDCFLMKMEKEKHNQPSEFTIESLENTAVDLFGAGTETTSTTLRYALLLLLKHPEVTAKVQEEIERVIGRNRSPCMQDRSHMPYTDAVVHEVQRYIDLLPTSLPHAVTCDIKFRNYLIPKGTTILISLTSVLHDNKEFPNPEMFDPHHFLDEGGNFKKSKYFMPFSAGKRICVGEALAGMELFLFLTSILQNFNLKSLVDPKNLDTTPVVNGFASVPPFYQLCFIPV
Procedure: as §1, §2, §3, §4, §5

CYP 2C19 = target: T5, CYP 2C19 (Homo sapiens, UniProt P33261); assay: CYP inhibition testing, CYP 2C19
T5 construct: For human liver microsome solution, a stock solution (20 mg/mL (4×final)) is used; from tissue; host or cells: human liver microsomes
T5 sequence (P33261 whole entry): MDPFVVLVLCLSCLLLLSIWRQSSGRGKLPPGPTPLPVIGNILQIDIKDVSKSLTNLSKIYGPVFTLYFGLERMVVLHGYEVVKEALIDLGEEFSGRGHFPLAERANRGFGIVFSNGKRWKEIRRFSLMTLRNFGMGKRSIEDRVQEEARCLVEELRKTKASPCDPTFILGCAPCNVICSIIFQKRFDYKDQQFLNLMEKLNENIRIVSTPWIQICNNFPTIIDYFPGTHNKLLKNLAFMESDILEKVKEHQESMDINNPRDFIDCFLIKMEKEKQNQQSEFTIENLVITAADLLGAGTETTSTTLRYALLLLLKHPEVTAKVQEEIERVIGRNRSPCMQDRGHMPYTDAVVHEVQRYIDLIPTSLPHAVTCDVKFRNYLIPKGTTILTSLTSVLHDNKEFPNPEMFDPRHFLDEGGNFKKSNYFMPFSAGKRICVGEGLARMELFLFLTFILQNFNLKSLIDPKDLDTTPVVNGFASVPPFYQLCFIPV
Procedure: as §1, §2, §3, §4, §5

Structure (SMILES): Cn1nc(C(=O)NC2CCNCC2)c2ccc(N3CCCCCC3)nc21.O=C(O)C(F)(F)F.O=C(O)C(F)(F)F [compound 697]
- CYP (% negative controls) 2D6 (CYP 2D6): 80 % negative controls
- CYP (% negative controls) 3A4 (CYP 3A4): 110 % negative controls
- CYP (% negative controls) 1A2 (CYP 1A2): 97 % negative controls
- CYP (% negative controls) 2C9 (CYP 2C9): 92 % negative controls
- CYP (% negative controls) 2C19 (CYP 2C19): 78 % negative controls

Structure (SMILES): CCC(CC)Oc1ccc2c(C(=O)NC3CCNCC3)n[nH]c2n1 [compound 726]
- CYP (% negative controls) 2D6 (CYP 2D6): 72 % negative controls
- CYP (% negative controls) 3A4 (CYP 3A4): 60 % negative controls
- CYP (% negative controls) 1A2 (CYP 1A2): 102 % negative controls
- CYP (% negative controls) 2C9 (CYP 2C9): 84 % negative controls
- CYP (% negative controls) 2C19 (CYP 2C19): 74 % negative controls

Structure (SMILES): Cn1nc(C(=O)NC2CCN(CCN3CCCCC3)CC2)c2ccc(N3CCCCCC3)nc21 [compound 1047]
- CYP (% negative controls) 2D6 (CYP 2D6): 72 % negative controls
- CYP (% negative controls) 3A4 (CYP 3A4): 113 % negative controls
- CYP (% negative controls) 1A2 (CYP 1A2): 98 % negative controls
- CYP (% negative controls) 2C9 (CYP 2C9): 91 % negative controls
- CYP (% negative controls) 2C19 (CYP 2C19): 92 % negative controls

Structure (SMILES): Cn1nc(CCCN2CCCC2)c2ccc(N3CCCCCCC3)nc21 [compound 1171]
- CYP (% negative controls) 2D6 (CYP 2D6): 62 % negative controls
- CYP (% negative controls) 3A4 (CYP 3A4): 67 % negative controls
- CYP (% negative controls) 1A2 (CYP 1A2): 104 % negative controls
- CYP (% negative controls) 2C9 (CYP 2C9): 141 % negative controls
- CYP (% negative controls) 2C19 (CYP 2C19): 72 % negative controls
